From patent US6472227B1, “Barbiturate assay, tracers, immunogens, antibodies and kit” (Abbott Laboratories, priority 1986, dated 2002)

Legend:
[1] = Tracer stability: polarization after storage in buffer or boric acid (Table 1); assay type: physicochemical; parameters: Polarization (Buffer): unit not given beside the values
Source text: It was unexpectedly discovered that the presence of a carbon-carbon double bond between the fluorescein moiety and the barbiturate ring portions of the novel tracers of the present invention advantageously orients the tracer for optimal interaction with the antibody.

[2] = system: antibodies raised against an immunogen having the structure shown in FIG. 29; assay: Fluorescence polarization immunoassay cross-reactivity, tracer of FIG. 31; assay type: binding, sheep; conditions: tracer FIG. 31
Method: (§1) The antibodies of the present invention are prepared by eliciting a response in sheep to the immunogens described supra. The immunogen is administered to animals or to in vitro cultures of immunocompetent cells by a series of innoculations, in a manner well known to those skilled in the art.

[3] = system: antibodies raised against an immunogen having the structure shown in FIG. 28; assay: Fluorescence polarization immunoassay cross-reactivity in drug-free normal human urine, tracer of FIG. 5; assay type: binding, sheep; conditions: for amount of the test compound found in the resulting human urine: 200 ng/mL added to drug-free urine, secobarbital standard
Method: as §1
(§2) The tracer formulation presently preferred is 150 nanomolar tracer in: 0.1 molar phosphate buffer at pH 6.2; 5% sodium 5-sulfosalicylate; 0.1% sodium azide; and 0.01% bovine gamma-globulin. The antiserum formulation comprises sheep serum diluted with: 0.1 molar tris buffer at pH 7.5; 0.1% sodium azide; 0.1% bovine gamma-globulin; and 2% ethylene glycol (volume/volume). The dilution buffer comprises: 0.1 molar sodium phosphate at pH 7.5; 0.1% sodium azide; and 0.01% bovine gamma-globulin. The pretreatment solution comprises: 0.01% bovine gamma-globulin; 0.1 molar tris buffer at pH 7.5; 0.1% sodium azide; and 10 mg/mL riboflavin binding protein.
(§3) A minimum of fifty microliters of urine is required. The calibrators, controls, or unknown samples are pipetted directly into the sample well of the TDx® or ADx® sample cartridge. […] The assay procedure from this point is fully automated.
(§4) If a manual assay is being performed, then the sample is mixed with the pretreatment solution in dilution buffer and a background reading is taken. The tracer and antibody are then mixed into the test solution. After incubation, a fluorescence polarization reading is taken.
(§5) The net fluorescence polarization value of each calibrator, control or sample is determined and is printed on the output tape of an instrument such as the Abbott TDx® Analyzer. […] The concentration of each control or sample is read off the stored calibration curve and printed on the output tape.
Cross-reactivity was tested by the method of the present invention for the commonly-used barbiturates. […]
The five columns indicate the following information:
In other words, when 200 ng of secobarbital were added to drug-free normal human urine, approximately 200 ng of secobarbital were detected in the resulting urine sample. Thus, the closer the factor is to 1.0, the more accurate the assay is with respect to the particular test compound analyzed.
The percent cross-reactivity value presented in column five was obtained by the following mathematical formula: [formula]
(§6) The five columns in Tables 4(a) and 4(b) indicate the same information as is described above for Table 3(a).

[4] = system: antibodies raised against an immunogen having the structure shown in FIG. 29; assay: Fluorescence polarization immunoassay cross-reactivity in drug-free normal human urine, tracer of FIG. 30; assay type: binding, sheep; conditions: for amount of the test compound found in the resulting human urine: 200 ng/mL added to drug-free urine, secobarbital standard; for % CR / Conc. Found: tracer FIG. 30
Method: as §1, §2, §3, §4, §5
Cross-reactivity was tested by the method of the present invention for the commonly-used barbiturates. In each case, compounds were assayed on the Abbott Laboratories+ TDx® Clinical Analyzer or the ADx® Drugs of Abuse System after adding a known quantity (200 ng/mL) of the barbiturate test compound to drug-free normal human urine.
as §6

## CCCC(C)C1(CC(=O)NCc2c(O)ccc3c2Oc2cc(O)ccc2C32OC(=O)c3ccccc32)C(=O)NC(=O)NC1=O (stereo not drawn)
[1]; 2-8 °C, Day 0
  Polarization (Boric Acid): 269.39
  Polarization (Buffer): 247.79
[1]; 2-8 °C, Day 1
  Polarization (Boric Acid): 271.12
  Polarization (Buffer): 238.09
[1]; 2-8 °C, Day 7
  Polarization (Boric Acid): 228.62
  Polarization (Buffer): 168.21
[1]; 45 °C, Day 1
  Polarization (Boric Acid): 62.68
  Polarization (Buffer): 48.70
[1]; 45 °C, Day 7
  Polarization (Boric Acid): > 68.68
  Polarization (Buffer): > 48.70

## CCC1(CCC(C)C)C(=O)NC(=O)NC1=O [Amobarbital]
[2]; Conc. Added 1200 ng/mL
  % CR: 73%
  Conc. Found: 870 ng/mL
[3]; 200 ng/mL added
  factor which overestimates or underestimates the compound assayed for: 1.55
  percent cross reactivity: 155%
[3]
  amount of the test compound found in the resulting human urine: 310 ng/mL
[4]; 200 ng/mL added
  factor which overestimates or underestimates the compound assayed for: 0.43
  percent cross reactivity: 43%
[4]
  amount of the test compound found in the resulting human urine: 85 ng/mL
[4]; Conc. Added 1200 ng/mL
  % CR: 41%
  Conc. Found: 490 ng/mL

## C=CCC1(CC(C)C)C(=O)NC(=O)NC1=O [Butalbital]
[2]; Conc. Added 1200 ng/mL
  % CR: >167%
[3]; 200 ng/mL added
  factor which overestimates or underestimates the compound assayed for: 1.00
  percent cross reactivity: 100%
[3]
  amount of the test compound found in the resulting human urine: 201 ng/mL
[4]; 200 ng/mL added
  factor which overestimates or underestimates the compound assayed for: 1.13
  percent cross reactivity: 113%
[4]
  amount of the test compound found in the resulting human urine: 227 ng/mL
[4]; Conc. Added 1200 ng/mL
  % CR: 167%
  Conc. Found: 2000 ng/mL

## C=CCC1(C2C=CCC2)C(=O)NC(=O)NC1=O (stereo not drawn) [Cyclopentobarbital]
[2]; Conc. Added 1200 ng/mL
  % CR: >167%
[4]; Conc. Added 1200 ng/mL
  % CR: >167%

## CC(C(=O)O)c1cccc(Oc2ccccc2)c1 (stereo not drawn) [Fenoprofen]
[2]; Conc. Added 200 (ng/mL)
  % CR: 0.02%
  Conc. Found: 40 ng/mL
[3]; 215 μg/mL added
  amount of the test compound found: 180 ng/mL
  factor: 0.00084
  percent cross reactivity: 0.084%
[3]; 430 μg/mL added
  amount of the test compound found: 290 ng/mL
  factor: 0.00067
  percent cross reactivity: 0.067%
[4]; Conc. Added 200 (ng/mL)
  % CR: 0.015%
  Conc. Found: 30 ng/mL

## CCC1(c2ccccc2)CCC(=O)NC1=O (stereo not drawn) [Glutethimide]
[2]; Conc. Added 10 (ng/mL)
  % CR: 4.70%
  Conc. Found: 470 ng/mL
[3]; 1 μg/mL added
  amount of the test compound found: ND (None detected: Concentration less than the sensitivity of the assay (60 ng/mL))
[3]; 10 μg/mL added
  amount of the test compound found: 180 ng/mL
  factor: 0.018
  percent cross reactivity: 1.80%
[4]; 1 μg/mL added
  amount of the test compound found: 89 ng/mL
  factor: 0.089
  percent cross reactivity: 8.90%
[4]; 10 μg/mL added
  amount of the test compound found: 480 ng/mL
  factor: 0.048
  percent cross reactivity: 4.80%
[4]; Conc. Added 10 (ng/mL)
  % CR: 4.70%
  Conc. Found: 470 ng/mL

## CC(C)Cc1ccc(C(C)C(=O)O)cc1 (stereo not drawn) [Ibuprofen]
[2]; Conc. Added 1000 (ng/mL)
  % CR: 0.005%
  Conc. Found: 50 ng/mL
[3]; 1 μg/mL added
  amount of the test compound found: ND (None detected: Concentration less than the sensitivity of the assay (60 ng/mL))
[3]; 10 μg/mL added
  amount of the test compound found: ND (None detected: Concentration less than the sensitivity of the assay (60 ng/mL))
[3]; 100 μg/mL added
  amount of the test compound found: 70 ng/mL
  factor: 0.0007
  percent cross reactivity: 0.07%
[4]; Conc. Added 1000 (ng/mL)
  % CR: 0.002%
  Conc. Found: 20 ng/mL

## CCCC(C)C1(CC)C(=O)NC(=O)NC1=O (stereo not drawn) [Pentobarbital]
[2]; Conc. Added 1200 ng/mL
  % CR: 64%
  Conc. Found: 770 ng/mL
[3]; 200 ng/mL added
  factor which overestimates or underestimates the compound assayed for: 1.05
  percent cross reactivity: 105%
[3]
  amount of the test compound found in the resulting human urine: 210 ng/mL
[4]; 200 ng/mL added
  factor which overestimates or underestimates the compound assayed for: 0.65
  percent cross reactivity: 65%
[4]
  amount of the test compound found in the resulting human urine: 129 ng/mL
[4]; Conc. Added 1200 ng/mL
  % CR: 62%
  Conc. Found: 740 ng/mL

## CCC1(c2ccccc2)C(=O)NC(=O)NC1=O [Phenobarbital]
[2]; Conc. Added 1200 ng/mL
  % CR: 107%
  Conc. Found: 1280 ng/mL
[3]; 200 ng/mL added
  factor which overestimates or underestimates the compound assayed for: 1.05
  percent cross reactivity: 105%
[3]
  amount of the test compound found in the resulting human urine: 210 ng/mL
[4]; 200 ng/mL added
  factor which overestimates or underestimates the compound assayed for: 0.70
  percent cross reactivity: 70%
[4]
  amount of the test compound found in the resulting human urine: 140 ng/mL
[4]; Conc. Added 1200 ng/mL
  % CR: 62%
  Conc. Found: 740 ng/mL

## O=C1NC(=O)C(c2ccccc2)(c2ccccc2)N1 [Phenytoin]
[2]; Conc. Added 100 (ng/mL)
  % CR: 0.09%
  Conc. Found: 90 ng/mL
[3]; 1 μg/mL added
  amount of the test compound found: ND (None detected: Concentration less than the sensitivity of the assay (60 ng/mL))
[3]; 10 μg/mL added
  amount of the test compound found: 320 ng/mL
  factor: 0.032
  percent cross reactivity: 3.20%
[3]; 100 μg/mL added
  amount of the test compound found: 1020 ng/mL
  factor: 0.0102
  percent cross reactivity: 1.02%
[4]; Conc. Added 100 (ng/mL)
  % CR: 0.04%
  Conc. Found: 40 ng/mL

## C=CCC1(C(C)CC)C(=O)NC(=O)NC1=O (stereo not drawn) [Talbutal]
[2]; Conc. Added 1200 ng/mL
  % CR: >167%
[3]; 200 ng/mL added
  factor which overestimates or underestimates the compound assayed for: 0.90
  percent cross reactivity: 90%
[3]
  amount of the test compound found in the resulting human urine: 180 ng/mL
[4]; 200 ng/mL added
  factor which overestimates or underestimates the compound assayed for: 2.65
  percent cross reactivity: 265%
[4]
  amount of the test compound found in the resulting human urine: 531 ng/mL
[4]; Conc. Added 1200 ng/mL
  % CR: >167%

## CCCC(C)C1(C/C=C/C(=O)NCc2c(O)ccc3c2Oc2cc(O)ccc2C32OC(=O)c3ccccc32)C(=O)NC(=O)NC1=O (stereo not drawn) [drawing 9]
[1]; 2-8 °C, Day 0
  Polarization (Buffer): 239.63
[1]; 2-8 °C, Day 1
  Polarization (Buffer): 235.18
[1]; 2-8 °C, Day 7
  Polarization (Buffer): 235.08
[1]; 45 °C, Day 1
  Polarization (Buffer): 237.93
[1]; 45 °C, Day 7
  Polarization (Buffer): 239.72

## O=C1NC(=O)C(c2ccccc2)(c2ccc(O)cc2)N1 (stereo not drawn) [p-Hydroxy phenytoin]
[2]; Conc. Added 500 (ng/mL)
  % CR: 0.058%
  Conc. Found: 290 ng/mL
[3]; 1 μg/mL added
  amount of the test compound found: ND (None detected: Concentration less than the sensitivity of the assay (60 ng/mL))
[3]; 10 μg/mL added
  amount of the test compound found: 340 ng/mL
  factor: 0.034
  percent cross reactivity: 3.40%
[3]; 100 μg/mL added
  amount of the test compound found: 1200 ng/mL
  factor: 0.012
  percent cross reactivity: 1.20%
[4]; 10 μg/mL added
  amount of the test compound found: ND (None detected: Concentration less than the sensitivity of the assay (60 ng/mL))
[4]; 100 μg/mL added
  amount of the test compound found: 101 ng/mL
  factor: 0.00010
  percent cross reactivity: 0.10%
[4]; 500 μg/mL added
  amount of the test compound found: 218 ng/mL
  factor: 0.00004
  percent cross reactivity: 0.04%
[4]; Conc. Added 500 (ng/mL)
  % CR: 0.001%
  Conc. Found: 200 ng/mL

## Primidone
[2]; Conc. Added 100 (ng/mL)
  % CR: 0.24%
  Conc. Found: 240 ng/mL
[3]; 1 μg/mL added
  amount of the test compound found: ND (None detected: Concentration less than the sensitivity of the assay (60 ng/mL))
[3]; 10 μg/mL added
  amount of the test compound found: 90 ng/mL
  factor: 0.009
  percent cross reactivity: 0.90%
[3]; 100 μg/mL added
  amount of the test compound found: 320 ng/mL
  factor: 0.0032
  percent cross reactivity: 0.32%
[4]; 10 μg/mL added
  amount of the test compound found: ND (None detected: Concentration less than the sensitivity of the assay (60 ng/mL))
[4]; 100 μg/mL added
  amount of the test compound found: 195 ng/mL
  factor: 0.00019
  percent cross reactivity: 0.19%
[4]; Conc. Added 100 (ng/mL)
  % CR: 0.18%
  Conc. Found: 180 ng/mL
